Results published in patent US20250312416A1, “METHOD AND PHARMACEUTICAL COMPOSITION FOR CARTILAGE REGENERATION” (FAR EASTERN MEMORIAL HOSPITAL, priority 2024, published 2025).
Entries after “also recorded” stand apart in the source; their conditions may differ.

How the values were obtained:
Type in all cases: cell-based, human
clinical-grade ADSCs = assay: Real-time PCR of chondrogenic genes in ADSCs
Experimental: Real-time PCR analysis was conducted on day 7 for CXCL12/CXCL14 peptides treated ADSCs, evaluating the expression of COMP, SOX9, COL2A1, ACAN, ITGB1, and SOSTDC1 genes. Cells were harvested, and RNA extraction was performed using a LightCycler® (Roche Applied Science). The fold change in gene expression on the y-axis was calculated relative to the same gene expression in untreated chondrocytes. Statistical analysis was conducted using one-way ANOVA. Significance levels are denoted as follows: * p<0.05, ** p<0.01, *** p<0.001, and **** p<0.0001 for comparisons between PBS treatments and the untreated group.
Real-time PCR analysis was performed on day 7 for ADSCs treated with CXCR4 agonists, assessing the expression of COMP, SOX9, COL2A1, ACAN, ITGB1, CXCL14, and SOSTIC1 genes. Cellular harvest, RNA extraction, and gene expression quantification were conducted using a LightCycler® (Roche Applied Science). The fold change in gene expression on the y-axis was calculated relative to the same gene expression in untreated chondrocytes. Statistical analysis was executed through one-way ANOVA. Significance levels are represented as follows: * p<0.05, ** p<0.01, *** p<0.001, and **** p<0.0001, indicating the significance of comparisons between PBS treatments and the untreated group.
Alcian blue staining was used to assess the chondrogenic differentiation of ADSC pellets. […] Treatment with CXCL14-PM1, CXCL14-PM2, CXCL14-PM3, and CXCR4-PM1 was sufficient to enhance the expression of chondrogenic genes in ADSCs. On day 7, real-time PCR was performed to analyze the expression of key chondrogenic markers, including SOX9, COL2A1, COMP, ACAN, ITGB1, CXCL14, and CXCR4, in ADSCs treated with these modified peptides. ADSCs were exposed to distinct peptide modifications derived from CXCL12, CXCL14, and CXCR4 at a concentration of 10 ng for a one-day treatment, after which the medium was replaced with fresh peptide-free medium. At the end of the treatment period, RNA was extracted to evaluate the expression levels of chondrogenesis-related cytokine genes. Gene expression quantification was performed using a LightCycler system (Roche Applied Science), and fold changes were calculated relative to untreated control ADSCs. […] FIG. 16(D) provides a summary of the results for alanine substitution with positively or negatively charged amino acids in CXCL12, CXCL14, and CXCR4 peptides.
ADSCs were treated with CXCL14-P, CXCL14-P1, or CXCL14-P2, respectively, at a concentration of 10 ng for 24 hours, after which the medium was replaced with fresh peptide-free medium. On day 7, total RNA was extracted, and real-time PCR analysis was performed to assess the expression levels of key chondrogenic markers, including ACAN, COL2A1, SOX9, and COMP. Gene expression levels were quantified using a LightCycler system (Roche Applied Science), with fold changes calculated relative to untreated control ADSCs. […] Immunofluorescence staining was performed to detect Collagen Type II, SOX9, COMP, and nuclei (Hoechst 33342) in 3D ADSC spheroids (middle panel). […]
Human IPFP-MSCs and ADSCs were expanded in Dulbecco's Modified Eagle's Medium (DMEM, Gibco, cat. no 2145484) with 10% FBS under a 37° C., 5% CO2 atmosphere. MSCs collected and cell extractions were determined gene expression levels of cytokines and chondrogenic markers using a LightCycler® (Roche Applied Science). The fold change in gene expression on the y-axis was calculated based on untreated cell gene expression.

ADSC spheroids = assay: Immunofluorescence / confocal microscopy of chondrogenic proteins in ADSC spheroids; conditions: 3D ADSC spheroids, by day 7
Experimental: Both side views (observed in the x and z plane) and bottom views (observed in the […]) of the images are provided. The scale bar is set at 500 μm.
ADSCs were treated with CXCL14-P, CXCL14-P1, or CXCL14-P2, respectively, at a concentration of 10 ng for 24 hours, after which the medium was replaced with fresh peptide-free medium. On day 7, total RNA was extracted, and real-time PCR analysis was performed to assess the expression levels of key chondrogenic markers, including ACAN, COL2A1, SOX9, and COMP. Gene expression levels were quantified using a LightCycler system (Roche Applied Science), with fold changes calculated relative to untreated control ADSCs. […] Immunofluorescence staining was performed to detect Collagen Type II, SOX9, COMP, and nuclei (Hoechst 33342) in 3D ADSC spheroids (middle panel).
(FIG. 3). […] Moreover, fluorescence confocal microscopy was employed to detect protein patterns and confirm the levels of SOX9, type II collagen, and aggrecan proteins in ADSC spheroids. […] Finally, to investigate whether the CXCR4 receptor of CXCL12/CXCL14 confers chondrogenic signaling during chondrogenesis, we treated ADSCs with a CXCR4 agonist for 7 days.
Extracellular vesicles (EVs) derived from MSCs hold significant potential for repairing damaged tissues. In this study, we explored whether EVs from ADSCs could effectively enhance chondrogenesis and promote cartilage repair. Immunofluorescence staining was used to assess protein levels of Collagen Type II (green), SOX9 (red), COMP (indigo), and Hoechst 33342 (gray) in 3D ADSC spheroids treated with MSC-EVs derived from CXCL14 peptide-primed ADSCs (CXCL14-P-MSC-EVs) at various time points. […] To further explore the cartilage repair functions of EVs from CXCL14-P-treated ADSCs and the encapsulation of the transcription factor SOX9 within MSCs and purified EVs, we performed in vivo studies.

ADSCs = assay: Cellular uptake of fluorescently labeled peptides by fluorescence microscopy
Experimental: Cell-penetrating properties of CXCL14-P and CXCL12-P peptides in ADSCs were analyzed. ADSCs were incubated with 10 ng of FITC-conjugated peptides at 37° C. for one day, followed by refreshing the chondrogenic medium. Peptide internalization was evaluated through fluorescence microscopy on days 1, 3, and 7.
We further explored whether peptides derived from CXCL14 and CXCL12 have the capacity to induce chondrogenesis in MSCs from different sources. To assess their potential, ADSCs were utilized in the study to evaluate the chondrogenic capacity of CXCL14-P and CXCL12-P on day 7 (FIG. 10A). […] FIG. 11 illustrates the cell-penetrating properties of CXCL14-P and CXCL12-P peptides in ADSCs, analyzed at different time points. ADSCs were incubated with FITC-conjugated peptides for one day, after which the chondrogenic medium was refreshed. […] Collectively, these observations indicate that CXCL14-P and CXCL12-P have the ability to stimulate chondrogenesis and further amplify the effects of TGF-β during the chondrogenic process.

## ITTKSVSRYRGQEH [CXCL14-P]
clinical-grade ADSCs; day 7, peptides compared to CXCL12/CXCL14 proteins, listed as CXCL14 peptide
  expression of chondrogenic genes (COMP, SOX9, COL2A1, ACAN, ITGB1, SOSTDC1): significantly upregulated; also recorded: greater ability
clinical-grade ADSCs; day 7 of treatment with peptide
  expression of chondrogenic genes (COMP, SOX9, COL2A1, ACAN, ITGB1): significantly upregulated
clinical-grade ADSCs; in the absence of TGF-β
  chondrogenic genes: evident
clinical-grade ADSCs; in the presence of TGF-β, day 7
  expression of chondrogenic genes ITGB1 and COMP: significantly enhanced
ADSC spheroids
  Collagen Type II, SOX9, and COMP expression: increase
ADSCs; 10 ng FAM-labeled, 24 hours then peptide-free medium, monitored to day 7
  cellular uptake / detectability of peptide: detectable on day 1 but became undetectable by day 7
ADSCs; 10 ng FITC-conjugated peptide, 37° C. for one day, observed days 1, 3, 7
  peptide internalization (cell penetration): remain detectable up to day 7
